The test system of assay [1] is HeLa cells. The assay is described as follows: Flow cytometry cellular uptake of FITC-labeled peptides. In kind it is cell-based. The following applies: for mean fluorescence intensity (MFI): 5 μM FITC-labeled peptide; for mean fluorescence intensity (MFI) / higher cell entry efficiency than cFΦR4: 2 h; for higher cell entry efficiency than cFΦR4: 5 μM. As for the experimental part:
HeLa cells were cultured in six-well plates (5×10^5 cells per well) for 24 h. On the day of experiment, the cells were incubated with 5 μM FITC-labeled peptide in clear DMEM with 1% FBS at 37° C. for 2 h. The cells were washed with DPBS, detached from plate with 0.25% trypsin, diluted into clear DMEM containing 10% FBS, pelleted at 250 g for 5 min, washed once with DPBS and resuspended in DPBS containing 1% bovine serum albumin, and analyzed on a BD LSR II flow cytometer. Data were analyzed with Flowjo software (Tree Star).
To monitor their cellular uptake, peptides 2 and 3 were labeled with fluorescein isothiocyanate (FITC) on the side chain of a C-terminal lysine. […] Thus, bicyclic peptides 2 and 3 entered HeLa cells with 72% and 36% higher efficiencies, respectively, than cFΦR4 (SEQ ID NO.:72).
Peptides 4 and 5 were labeled with FITC at the side chain of a lysine added to their C-termini and their cellular entry was assessed by flow cytometry. […] Briefly, in the presence of an anti-glutathione-S-transferase (GST) antibody labeled with a fluorescence donor (Tb) and streptavidin labeled with a fluorescence acceptor (d2), binding of GST-NEMO to a biotinylated IKKβ fragment (amino acids 701-745) (B. Gao, et al., Biochemistry 2014, 53, 677) results in a resonance energy transfer. Addition of a NEMO inhibitor blocks the NEMO-IKKβ interaction and reduces the HTRF signal. […] IKKβ contains a phenylalanine at the same position (Phe-734). […] Thus, the phenylalanine in peptide 4 likely plays dual roles of cellular entry and NEMO binding.
Background: A flow cytometer gives signals particle by particle.

In assay [2] the target is T1, NEMO-IKKβ interaction (Homo sapiens, UniProt Q9Y6K9).
T1 construct: transformed with a pGEX4T3-GST-NEMO(1-196) plasmid; made in house; host or cells: Escherichia coli BL21(DE3)
The assay is described as follows: HTRF assay of the NEMO-IKKβ interaction. The format is binding. The following applies: up to 100 μM peptide, 5 mM TCEP.

Assay [3] deals with TNFα-induced activation of NF-κB in NF-κB reporter (Luc)-HEK293 cells. The assay is described as follows: NF-κB luciferase assay.
Procedure: NF-κB reporter (Luc)-HEK293 cells were seeded in 96-well microplate in 45 μL of assay medium (DMEM, 10% FBS, and 1% penicillin/streptomycin, 1500 cells per well) and cultured overnight. Five μL of NEMO inhibitor in assay medium was added to cells and the cells were incubated for 2 h. Recombinant TNFα^3 in 5 μL of assay medium was added to the wells at the final concentration of 5 ng/mL. After 4 h of incubation, 55 μL of ONE-Step luciferase assay reagent was added to each well. Luminescence was measured after 10 min of incubation using a Tecan Infinite M1000 Pro microplate reader. Luciferase activities of TNFα unstimulated and stimulated cells were recorded as AU″ and AU^+, respectively. Luciferase activities of TNFα stimulated cells after incubating with different concentrations of NEMO inhibitors were recorded as AU^pep.
The ability of the bicyclic peptides to modulate the NEMO-IKK interaction inside the cell was assessed by monitoring the TNFα-induced activation of NF-κB.
Assay [4] has as its system mammalian cells. The following applies: previously reported; cited from earlier work.

Results on four substances are retold here after US11351222B2, “Di-sulfide containing cell penetrating peptides and methods of making and using thereof” (Ohio State Innovation Foundation, priority 2016, dated 2022).

Bridge positions count the residues as written; N and C are the ends. Square brackets hold non-standard residues; d marks the D form. Ends that are not written are not given here. BMB = 3,5-bis(mercaptomethyl)benzoic acid scaffold; 2Nal = N[C@@H](Cc1ccc2ccccc2c1)C(=O)O

T1 sequence (Q9Y6K9 1-196): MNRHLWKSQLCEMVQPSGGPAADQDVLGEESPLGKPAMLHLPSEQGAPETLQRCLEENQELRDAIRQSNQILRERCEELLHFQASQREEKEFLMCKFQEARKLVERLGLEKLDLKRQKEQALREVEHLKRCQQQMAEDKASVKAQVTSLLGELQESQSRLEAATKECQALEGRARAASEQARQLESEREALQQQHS

On to “2: bicyclic model peptide with CPP motif and mock cargo SASAS on BMB scaffold (cyclo(RRRR[2Nal]FCSASASCK); linker 7-13 via BMB (inferred)) [Peptide 2]”, for which, in assay [1], the “mean fluorescence intensity (MFI)” value stood at 5180. Further, the “higher cell entry efficiency than cFΦR4” value in assay [1] (relative to cFΦR4) is given as 72%.

Regarding “3: bicyclic model peptide with CPP motif and mock cargo SASAS on BMB scaffold (cyclo(SASASCF[2Nal]RRRRCK); linker 6-13 via BMB (inferred)) [Peptide 3]”, the “mean fluorescence intensity (MFI)” value in assay [1] is 4100. The “higher cell entry efficiency than cFΦR4” value in assay [1] (relative to cFΦR4) stood at 36%.

Take “5: control, similar to peptide 4 but two Ala residues in place of the two Trp residues (RRRR[2Nal]FCALDASALQC; linker 7-16 via BMB; not fully specified (C-terminus, bridges)) [Peptide 5]”: the “MFI higher than that of cFΦR4” value in assay [1] (FITC-labeled peptide, relative to cFΦR4) came out at 2 fold. Moreover, the “inhibition of the NEMO-IKKβ interaction” value in assay [2] is “only minor inhibition”. Also, the “effect on NF-κB signaling” value in assay [3] (at 20 μM) is listed as “no significant effect”. Moreover, in assay [3] (highest concentration tested (40 μM)), the “inhibition of NF-κB signaling” value was about 10%.

Regarding “Cyclo(FΦRRRRQ) [cFΦR4, reference compound]”, in assay [4], the “cytosolic delivery efficiency (ratio of cytosolic over extracellular cargo concentration)” value is 20%. Also, in assay [1], the “mean fluorescence intensity (MFI)” value is 3020.
